Measurements reported in US20260130933A1, “PHARMACEUTICAL COMPOSITION FOR PREVENTION OR TREATMENT OF NEPHROPATHY AND/OR DIABETES MELLITUS, COMPRISING ENAVOGLIFLOZIN” (DAEWOONG PHARMACEUTICAL CO., LTD., priority 2022, published 2026).

Assay: Example 1: phase 3 trial, enavogliflozin 0.3 mg once a day as monotherapy vs placebo for 24 weeks in patients with type 2 diabetes (HbA1c, FPG, C-peptide, body weight, lipids, blood pressure, HOMA, UACR, UGCR, adiponectin, leptin, safety)
Format: in vivo, human
Protocol: When a subject voluntarily gave written consent to participate in this clinical trial, a screening test was conducted. […] However, when the administration of a hypoglycemic agent was interrupted before the clinical trial Visit 1 (screening), at least an 8-week washout period, including the discontinuation period, was required, and during this period, a stable diet and exercise program was followed. Naïve patients were screened without a separate washout period, and the criteria for naïve patients were defined as patients who had not been administered hypoglycemic agents within 24 weeks prior to the date of obtaining written consent. […] In addition, they were instructed to maintain regular exercise and dietary control starting from 8 weeks prior to screening without changing their daily life patterns during the clinical trial period.

Structure (SMILES): OC[C@H]1O[C@@H](c2cc(Cc3ccc(C4CC4)cc3)c(Cl)c3c2CCO3)[C@H](O)[C@@H](O)[C@@H]1O [Enavogliflozin, (2S,3R,4R,5S,6R)-2-(7-chloro-6 (4-cyclopropylbenzyl)-2,3-dihydrobenzofuran-4-yl)-6-(hydroxymethyl)tetrahydro-2H-pyran-3,4,5-triol]
- HbA1c, Mean (SD) (week 18): 6.88(0.54) %
- LDL-C change from baseline, LS mean (week 18): -0.32 mg/dL
- LDL-C change from baseline, Mean (week 18): 1.69 mg/dL
- LDL-C, Mean (week 18): 97.16 mg/dL
- Subjects achieving HbA1c target of <6.5% (week 18): 24(29.27) %
- Subjects achieving HbA1c target of <7% (week 18): 47(57.32) %
- Subjects achieving therapeutic glycemic response (HbA1c change >0.5% or HbA1c<7%) (week 18): 60(73.17) %
- Systolic blood pressure, Mean (week 18): 121.63 mmHg
- body weight change from baseline, LS mean (week 18): -3.42 kg
- body weight change from baseline, Mean (week 18): -3.44 kg
- diastolic blood pressure change from baseline, LS mean (week 18): −4.09 mmHg
- diastolic blood pressure change from baseline, Mean (week 18): −3.63 mmHg
- fasting C-peptide, Mean (SD) (week 18): 0.65 ng/mL
- systolic blood pressure change from baseline, LS mean (week 18): −6.56 mmHg
- systolic blood pressure change from baseline, Mean (week 18): −6.22 mmHg
- total cholesterol change from baseline, LS mean (week 18): 6.45 mg/dL
- total cholesterol change from baseline, Mean (week 18): 8.40 mg/dL
- total cholesterol, Mean (week 18): 169.82 mg/dL
- triglycerides change from baseline, LS mean (week 18): -8.82 mg/dL
- triglycerides change from baseline, Mean (week 18): -4.14 mg/dL
- triglycerides, Mean (week 18): 113.30 mg/dL
- FPG change from baseline, LS mean difference (week 18, vs placebo): -33.40 mg/dL
- HDL-C change from baseline, LS mean difference (week 18, vs placebo): 2.69 mg/dL
- HOMA-IR change from baseline, LS mean difference (week 18, vs placebo): −1.49
- HOMA-β change from baseline, LS mean difference (week 18, vs placebo): 22.40
- HbA1c change from baseline, LS mean difference (week 18, vs placebo): −0.79 % p
- LDL-C change from baseline, LS mean difference (week 18, vs placebo): -2.35 mg/dL
- Odds ratio for achieving HbA1c<6.5% (week 18, vs placebo): 5.58
- Odds ratio for achieving HbA1c<7% (week 18, vs placebo): 4.85
- Odds ratio for achieving therapeutic response (week 18, vs placebo): 7.45
- UACR change from baseline, LS mean difference (week 18, vs placebo): -13.39 g/kg
- UGCR change from baseline, LS mean difference (week 18, vs placebo): 47.66 mg/mg
- adiponectin change from baseline, LS mean difference (week 18, vs placebo): 1.04 µg/mL
- body weight change from baseline, LS mean difference (week 18, vs placebo): -2.37 kg
- diastolic blood pressure change from baseline, LS mean difference (week 18, vs placebo): −1.90 mmHg
- fasting C-peptide change from baseline, LS mean difference (week 18, vs placebo): -0.11 ng/mL
- leptin change from baseline, LS mean difference (week 18, vs placebo): -2.36 ng/mL
- systolic blood pressure change from baseline, LS mean difference (week 18, vs placebo): −3.36 mmHg
- total cholesterol change from baseline, LS mean difference (week 18, vs placebo): -0.99 mg/dL
- triglycerides change from baseline, LS mean difference (week 18, vs placebo): -17.74 mg/dL
- Body weight, Mean (week 24): 65.28 kg
- Diastolic blood pressure, Mean (week 24): 72.68 mmHg
- FPG change from baseline, LS mean (SE) (week 24): −31.66(3.68) mg/dL
- FPG change from baseline, Mean (SD) (week 24): −30.00(20.73) mg/dL
- FPG, Mean (SD) (week 24): 111.00(14.56) mg/dL
- HDL-C change from baseline, LS mean (week 24): 4.39 mg/dL
- HDL-C change from baseline, Mean (week 24): 4.13 mg/dL
- HDL-C, Mean (week 24): 56.05 mg/dL
- HbA1c change from baseline, LS mean (SE) (week 24): −0.88(0.10) % p
- HbA1c change from baseline, Mean (SD) (week 24): −0.84(0.66) % p
- HbA1c, Mean (SD) (week 24): 6.80(0.59) %
- LDL-C change from baseline, LS mean (week 24): -2.92 mg/dL
- LDL-C change from baseline, Mean (week 24): -1.03 mg/dL
- LDL-C, Mean (week 24): 94.44 mg/dL
- Subjects achieving HbA1c target of <6.5% (week 24): 29(35.37) %
- Subjects achieving HbA1c target of <7% (week 24): 58(70.73) %
- Subjects achieving therapeutic glycemic response (HbA1c change >0.5% or HbA1c<7%) (week 24): 68(82.93) %
- Systolic blood pressure, Mean (week 24): 121.29 mmHg
- body weight change from baseline, LS mean (week 24): -3.47 kg
- body weight change from baseline, Mean (week 24): -3.48 kg
- diastolic blood pressure change from baseline, LS mean (week 24): −3.92 mmHg
- diastolic blood pressure change from baseline, Mean (week 24): −3.55 mmHg
- fasting C-peptide, Mean (SD) (week 24): 0.64 ng/mL
- systolic blood pressure change from baseline, LS mean (week 24): −7.27 mmHg
- systolic blood pressure change from baseline, Mean (week 24): −6.55 mmHg
- total cholesterol change from baseline, LS mean (week 24): 4.84 mg/dL
- total cholesterol change from baseline, Mean (week 24): 6.58 mg/dL
- total cholesterol, Mean (week 24): 168.00 mg/dL
- triglycerides change from baseline, LS mean (week 24): -0.08 mg/dL
- triglycerides change from baseline, Mean (week 24): 1.95 mg/dL
- triglycerides, Mean (week 24): 119.39 mg/dL
- FPG change from baseline, LS mean difference (week 24, vs placebo): -40.08 mg/dL
- HDL-C change from baseline, LS mean difference (week 24, vs placebo): 4.05 mg/dL
- HOMA-IR change from baseline, LS mean difference (week 24, vs placebo): −1.94
- HOMA-β change from baseline, LS mean difference (week 24, vs placebo): 5.88
- HbA1c change from baseline, LS mean difference (week 24, vs placebo): −0.99 % p
- LDL-C change from baseline, LS mean difference (week 24, vs placebo): -6.91 mg/dL
- Odds ratio for achieving HbA1c<6.5% (week 24, vs placebo): 12.10
- Odds ratio for achieving HbA1c<7% (week 24, vs placebo): 9.08
- Odds ratio for achieving therapeutic response (week 24, vs placebo): 12.98
- UACR change from baseline, LS mean difference (week 24, vs placebo): -13.92 g/kg
- UGCR change from baseline, LS mean difference (week 24, vs placebo): 47.36 mg/mg
- adiponectin change from baseline, LS mean difference (week 24, vs placebo): 0.98 µg/mL
- body weight change from baseline, LS mean difference (week 24, vs placebo): -2.47 kg
- diastolic blood pressure change from baseline, LS mean difference (week 24, vs placebo): −3.12 mmHg
- fasting C-peptide change from baseline, LS mean difference (week 24, vs placebo): -0.13 ng/mL
- leptin change from baseline, LS mean difference (week 24, vs placebo): -2.99 ng/mL
- systolic blood pressure change from baseline, LS mean difference (week 24, vs placebo): −5.75 mmHg
- total cholesterol change from baseline, LS mean difference (week 24, vs placebo): -6.40 mg/dL
- triglycerides change from baseline, LS mean difference (week 24, vs placebo): -28.56 mg/dL
